Literature values as cited in patent publication US20220370506A1, “AUGMENTATION OF FIBROBLAST MEDIATED REGENERATION OF INTRAVERTEBRAL DISCS” (FIGENE, LLC, priority 2019, published 2022).

Test system: patients with chronic lumbosacral radiculopathy or discogenic low back pain
[1] = authors' conclusion, single low dose intradiscal

etanercept
pain scores between or within groups (1-month follow-up, 0.1, 0.25, 0.5, 0.75, 1.0, or 1.5 mg intradiscally in each pain-generating disc, any dose range or subgroup): no differences
disability scores between or within groups (1-month follow-up, 0.1-1.5 mg intradiscally, any dose range or subgroup): no differences
effectiveness as treatment for chronic radicular or discogenic low back pain [1]: does not seem to be an effective treatment
serious side effects [1]: no serious side effects were observed
complications (intradiscal 0.1-1.5 mg, 36 patients): No complications were reported
preprocedure versus postprocedure leukocyte counts (intradiscal 0.1-1.5 mg, 1-month follow-up): no differences were noted
